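How tested: cells in 96-well plates exposed to compound for 48 hours at five concentrations. TGI marks complete inhibition of growth.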 Where a SMILES comes first, the peptide text is derived from it. [ ]: non-standard residue; d: D form. The star is where a group is joined. X28 = COC1=CC(=O)N(C(=O)[C@@H](O*)C(C)C)[C@H]1Cc1ccccc1; NMeV = CN[C@H](C(=O)O)C(C)C; Hexanoyl = CCCCCC(=O)*

These results are taken from PubChem BioAssay (NCI).

Among the test systems are HCT-15 colon; SW-620 colon; HOP-92 NSCLC; HL-60(TB) leukemia; NCI-H23 lung; SK-MEL-28 melanoma; U251 CNS; LOX IMVI melanoma; BT-549 breast; MDA-MB-231 breast; SK-MEL-5 melanoma; HOP-62 NSCLC; MCF7 breast; DU-145 prostate; MDA-N; ACHN renal; NCI-H522 lung; K-562 leukemia; M14 melanoma; UO-31 renal.
Assay in all cases: NCI anticancer screen, dose series, 48 h

For `COCCN(C(C)=O)C1CCC2(SCCS2)c2[nH]c3ccccc3c21` (configuration not stated), the TGI with HCT-15 colon, with SW-620 colon, with HOP-92 NSCLC, in the experiment on HL-60(TB) leukemia, in the experiment on NCI-H23 lung and in the experiment with SK-MEL-28 melanoma was above 100 µM in each case. In addition, the TGI in the experiment with U251 CNS, with LOX IMVI melanoma, with BT-549 breast, in the experiment with MDA-MB-231 breast, with SK-MEL-5 melanoma and in the experiment on HOP-62 NSCLC was above 100 µM each time. Further, the TGI in the experiment on MCF7 breast, in the experiment with DU-145 prostate, in the experiment on MDA-N, in the experiment with ACHN renal, with NCI-H522 lung and in the experiment with K-562 leukemia was above 100 µM in each case.

In the case of `CC#CC#C/C=C1/O[C@]2(CCC(OC(C)=O)CO2)[C@@H]2O[C@H]12` (some centres not stated), the TGI in the experiment with HCT-15 colon amounted to 42.8 µM; in the experiment with SW-620 colon it was 95.9 µM; in the experiment on HOP-92 NSCLC, 92.9 µM; in the experiment on HL-60(TB) leukemia, 48.7 µM; in the experiment with NCI-H23 lung, 44.7 µM; with U251 CNS, 39.1 µM. For the same molecule, the TGI is 48.2 µM in the experiment with LOX IMVI melanoma; 50.4 µM in the experiment on BT-549 breast; 44.2 µM in the experiment with MDA-MB-231 breast; above 100 µM in the experiment on HOP-62 NSCLC; above 100 µM in the experiment on MCF7 breast; above 100 µM in the experiment with DU-145 prostate. In addition, the TGI in the experiment with MDA-N was above 100 µM; in the experiment with ACHN renal it was 60.8 µM; with M14 melanoma, 67.6 µM; in the experiment on UO-31 renal it was 39 µM; in the experiment with NCI-H522 lung, 35.6 µM; in the experiment with K-562 leukemia, above 100 µM.

On to `CC(=O)OCC1OC(SC2=N/C(=C\c3cc4c(=O)c5ccccc5sc4s3)C(=O)N2c2ccccc2)C(OC(C)=O)C(OC(C)=O)C1OC(C)=O` (configuration not stated), for which the TGI with HCT-15 colon was above 100 µM; with SW-620 colon it was above 100 µM; with HL-60(TB) leukemia, 53.3 µM; in the experiment with NCI-H23 lung, above 100 µM; in the experiment with SK-MEL-28 melanoma, above 100 µM; in the experiment with U251 CNS it was 62.8 µM. The TGI in the experiment on LOX IMVI melanoma, in the experiment with BT-549 breast, in the experiment with MDA-MB-231 breast, with SK-MEL-5 melanoma, in the experiment on HOP-62 NSCLC and in the experiment on MCF7 breast was above 100 µM in each case. The TGI in the experiment with DU-145 prostate, in the experiment with MDA-N, in the experiment on ACHN renal, with UO-31 renal, with NCI-H522 lung and with K-562 leukemia was above 100 µM each time.

For `CCCNC(=O)c1cc(NC(=O)c2cc(NC(=O)/C=C/c3ccccc3)c(OC)c(OC)c2)c(OC)c(OC)c1`, the TGI in the experiment with HCT-15 colon is above 100 µM; with SW-620 colon, above 100 µM; in the experiment on HL-60(TB) leukemia, above 100 µM; in the experiment on NCI-H23 lung it was above 100 µM; in the experiment with SK-MEL-28 melanoma it was 67.7 µM; in the experiment with U251 CNS, 13.9 µM. The TGI in the experiment on LOX IMVI melanoma was 8.35 µM; in the experiment on BT-549 breast it was 53.4 µM; in the experiment with MDA-MB-231 breast it was 6.27 µM; with HOP-62 NSCLC it was 19.4 µM; in the experiment on MCF7 breast, 28.5 µM; in the experiment on DU-145 prostate, above 100 µM. For the same molecule, the TGI is above 100 µM in the experiment with MDA-N; 36.8 µM with ACHN renal; above 100 µM in the experiment on M14 melanoma; 20.7 µM in the experiment with UO-31 renal; 23.1 µM in the experiment with NCI-H522 lung; above 100 µM with K-562 leukemia.

Take `CCCCCC(=O)N[C@H](C(=O)N[C@H](C(=O)N(C)[C@H](C(=O)N1CCC[C@H]1C(=O)N1CCC[C@H]1C(=O)O[C@H](C(=O)N1C(=O)C=C(OC)[C@@H]1Cc1ccccc1)C(C)C)C(C)C)C(C)C)C(C)C` (Hexanoyl-VV[NMeV]PP-X28): the TGI in the experiment with HCT-15 colon, in the experiment on SW-620 colon, in the experiment on HOP-92 NSCLC, in the experiment on HL-60(TB) leukemia, with NCI-H23 lung and with SK-MEL-28 melanoma was above 100 µM each time. Besides, the TGI in the experiment with U251 CNS, in the experiment with LOX IMVI melanoma, in the experiment with BT-549 breast, in the experiment with MDA-MB-231 breast, in the experiment on HOP-62 NSCLC and in the experiment with MCF7 breast was above 100 µM throughout. The TGI with DU-145 prostate, in the experiment with MDA-N, in the experiment on ACHN renal, with UO-31 renal, with NCI-H522 lung and in the experiment on K-562 leukemia was above 100 µM in each case.

Turning to `CCOC(=O)N(Cc1cccs1)c1cc(OC)c(OC)c(OC)c1`, the TGI in the experiment on HCT-15 colon, in the experiment with SW-620 colon, in the experiment with HL-60(TB) leukemia, in the experiment on NCI-H23 lung, with SK-MEL-28 melanoma and in the experiment on U251 CNS was above 100 µM throughout. Further, the TGI in the experiment with LOX IMVI melanoma, with BT-549 breast, with MDA-MB-231 breast, in the experiment with SK-MEL-5 melanoma, in the experiment with HOP-62 NSCLC and in the experiment with MCF7 breast was above 100 µM each time. Moreover, the TGI in the experiment on DU-145 prostate is above 100 µM; with MDA-N, 90.8 µM; in the experiment on ACHN renal it was above 100 µM; in the experiment on M14 melanoma, above 100 µM; in the experiment on UO-31 renal it was above 100 µM; in the experiment with NCI-H522 lung, above 100 µM. The same molecule had a TGI in the experiment on K-562 leukemia of 65.7 µM.

Turning to `C=CCOc1ccc(/C(N=Nc2ccc([N+](=O)[O-])cc2)=N/NC(=O)c2ccccc2)cc1OC`, the TGI with HCT-15 colon, with SW-620 colon, in the experiment with HOP-92 NSCLC, in the experiment with HL-60(TB) leukemia, with NCI-H23 lung and in the experiment with SK-MEL-28 melanoma was above 100 µM throughout. Besides, the TGI in the experiment with U251 CNS, in the experiment on LOX IMVI melanoma, with BT-549 breast, with MDA-MB-231 breast, in the experiment with SK-MEL-5 melanoma and in the experiment on HOP-62 NSCLC was above 100 µM throughout. Also, the TGI in the experiment on MCF7 breast, in the experiment with DU-145 prostate, with MDA-N, in the experiment with ACHN renal, in the experiment with M14 melanoma and with UO-31 renal was above 100 µM each time. This molecule gave a TGI in the experiment on NCI-H522 lung above 100 µM.

`C=CCOc1ccc(/C(N=Nc2ccc(Cl)cc2)=N/NC(=O)c2ccccc2)cc1OC`: the TGI with HCT-15 colon is above 100 µM; in the experiment with SW-620 colon, above 100 µM; with HOP-92 NSCLC, 91.6 µM; in the experiment on HL-60(TB) leukemia, above 100 µM; in the experiment on NCI-H23 lung, above 100 µM; in the experiment with SK-MEL-28 melanoma it was above 100 µM. Further, the TGI is above 100 µM in the experiment with U251 CNS; above 100 µM in the experiment on LOX IMVI melanoma; 70.3 µM in the experiment on BT-549 breast; above 100 µM with MDA-MB-231 breast; above 100 µM in the experiment on SK-MEL-5 melanoma; above 100 µM in the experiment on HOP-62 NSCLC. Besides, the TGI in the experiment with MCF7 breast, in the experiment with DU-145 prostate, with MDA-N, in the experiment with ACHN renal, in the experiment on M14 melanoma and with UO-31 renal was above 100 µM throughout. The same molecule displayed a TGI with NCI-H522 lung above 100 µM.
